Data as given in patent US8071630B2 (priority 2002, dated 2011).
Structures can show the parent of a compound that is named as a salt.

Assays:
[1] = system: ouabain-induced arrhythmias; conditions: in vivo; cited from earlier work
[2] = system: isoprenaline-induced tachycardia; conditions: in vivo; cited from earlier work
[3] = system: Aspergillus awamori transformed with the aequorin gene; assay: Example 6: aequorin luminometry of [Ca2+]c response (toxicity) in Aspergillus awamori; assay type: cell-based; conditions: FIG. 1A
[4] = Stability in aqueous solution; assay type: physicochemical; conditions: only freshly made stocks are effective; product a lot less toxic
Excerpt: 4 pairs of optical enantiomers or salts thereof of the following chemicals were used in this study: • (R)-(+)-α-Methylbenzyl isocyanate and (S)-(−)-α-Methylbenzyl isocyanate. Only freshly made stocks of α-Methylbenzyl […] are effective.

For `CC(C)NCC(O)COc1cccc2ccccc12` (racemic) [propranolol hydrochloride], which “effectiveness in abolishing ouabain-induced arrhythmias” value (“effectiveness” for short) [1] is on record?
The value was “equally effective”.

For `CC(C)NCC(O)COc1cccc2ccccc12` (single isomer, unassigned; (+)) [(+)-propranolol], which “activity in blocking isoprenaline-induced tachycardia relative to racemic propranolol” value [2] is on record?
Its value is “less than a hundredth the activity of racemic propranolol”.

What about the “effectiveness” value [1] of the same compound?
Its value is “equally effective”.

Which “[Ca2+]c response to 10 μM (S)-(−)-BAY K8644” value ([3]; preincubation 5 min with 10 μM simple dilution, n=6) does the source give for `COC(=O)C1=C(C)NC(C)=C([N+](=O)[O-])[C@@H]1c1ccccc1C(F)(F)F` [(R)-(+)-BAY K8644] here?
The value was “significant inhibition”.

And the “[Ca2+]c final resting level” value ([3]; preincubation with 10 μM, then 10 μM (S)-(−)-BAY K8644)?
The value was “lower”.

For `CC(N=C=O)c1ccccc1` (stereo not drawn) [α-Methylbenzyl isocyanate], which “stability in aqueous solution” value [4] is on record?
Its value is “will react with water”.

For “(S)-(−)-propranolol hydrochloride [(S)-(−)-propranolol HCl]”, which “effectiveness” value [1] is on record?
Its value is “little effect”.
